15 compounds from US12310975B2, “Modulators of BCL6 proteolysis and associated methods of use” (Arvinas Operations, Inc., priority 2019, dated 2025) can be followed below.

Test [1] concerns the target T1, BCL6 (Homo sapiens (Human), UniProt P41182). The test is described as follows: BCL6 TR-FRET assay (BCL6-Avitag-Biotin / BCoR-Cy5 peptide). The test is classed as binding. As to conditions: read-out: IC50. The essentials:
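TR-FRET displacement assay: biotinylated His-SUMO-BCL6-Avitag (2 nM) pre-incubated 30 min at room temperature with compound (12-point 3-fold titration), then BCoR-Cy5 peptide (100 nM) and Eu-streptavidin (2 nM) added. Buffer: 50 mM HEPES pH 7.5, 125 mM NaCl, 0.01% Triton X, glutathione or DTT, 0.03% BSA. Read after 2 h.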

For test [2], the target named is T1, BCL6. In words: Immunofluorescence high content imaging of BCL6 degradation in T47D cells. Format: cell-based. As to conditions: T47D. The essentials: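 Following a 3-day incubation with serially diluted bifunctional compounds (final top 0.1 or 1 μM), T47D cells were PFA-fixed and immunostained for BCL6. Nuclear BCL6 signal was captured on a high-content imager.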

Molecules are shown by their SMILES. pIC50: −log10 of the molar value.

For `CNC(=O)COc1cc2cc(Nc3nc(N4CCC[C@H](COc5cccc6c5C(=O)N(C5CCC(=O)NC5=O)C6=O)C4)ncc3Cl)ccc2n(CC2COC2)c1=O` (stereo partly drawn) [compound 491, 2-{[6-({5-chloro-2-[(3S)-3-({[2-(2,6-dioxopiperidin-3-yl)-1,3-dioxo-2,3-dihydro-1H-isoindol-4-yl]oxy}methyl)piperidin-1-yl]pyrimidin-4-yl}amino)-1-[(oxetan-3-yl)methyl]-2-oxo-1,2-dihydroquinolin-3-yl]oxy}-N-methylacetamide], the pIC50 – broadly, the negative decadic logarithm of the IC50, by convention in mol/L – on BCL6 [1] is at most 7.00. For the same compound, the Dmax (as a rule, the greatest extent of degradation seen) at BCL6 [2] was at least 70%.

With `Cn1c(=O)n(CCC(C)(C)O)c2cc(Nc3nc(N4CCC(CN5CCN(c6cccc7c6C(=O)N(C6CCC(=O)NC6=O)C7=O)CC5)CC4)ncc3Cl)ccc21` (stereo not drawn) [compound 492, 4-(4-{[1-(5-chloro-4-{[3-(3-hydroxy-3-methylbutyl)-1-methyl-2-oxo-2,3-dihydro-1H-1,3-benzodiazol-5-yl]amino}pyrimidin-2-yl)piperidin-4-yl]methyl}piperazin-1-yl)-2-(2,6-dioxopiperidin-3-yl)-2,3-dihydro-1H-isoindole-1,3-dione], the pIC50 on BCL6 [1] is 7.00 to 7.30. At BCL6 [2], this compound displayed a Dmax of 50 to 70%.

As for `Cn1c(=O)n(CCC(C)(C)O)c2cc(Nc3nc(N4CCC(OC5CC6(CCN(c7cccc8c7C(=O)N(C7CCC(=O)NC7=O)C8=O)CC6)C5)CC4)ncc3Cl)ccc21` (stereo not drawn) [compound 493, 4-(2-{[1-(5-chloro-4-{[3-(3-hydroxy-3-methylbutyl)-1-methyl-2-oxo-2,3-dihydro-1H-1,3-benzodiazol-5-yl]amino}pyrimidin-2-yl)piperidin-4-yl]oxy}-7-azaspiro[3.5]nonan-7-yl)-2-(2,6-dioxopiperidin-3-yl)-2,3-dihydro-1H-isoindole-1,3-dione], the negative-log IC50 (pIC50) at BCL6 [1] was 7.30 to 8.00. This compound displayed a Dmax on BCL6 [2] below 50%.

As for `CNC(=O)COc1cc2cc(Nc3nc(N4CCC(CN5CCC6(CCN(c7ccc8c(c7)C(=O)N(C7CCC(=O)NC7=O)C8=O)CC6)C5)CC4)ncc3Cl)ccc2n(C(C)C)c1=O` (stereo not drawn) [compound 494, 2-{[6-({5-chloro-2-[4-({8-[2-(2,6-dioxopiperidin-3-yl)-1,3-dioxo-2,3-dihydro-1H-isoindol-5-yl]-2,8-diazaspiro[4.5]decan-2-yl}methyl)piperidin-1-yl]pyrimidin-4-yl}amino)-2-oxo-1-(propan-2-yl)-1,2-dihydroquinolin-3-yl]oxy}-N-methylacetamide], on BCL6 [1], the pIC50 was above 8.00. Besides, at BCL6 [2], the Dmax is 50 to 70%.

On to `CNC(=O)COc1cc2cc(Nc3nc(N4CCC(CN5CCC6(CC5)CCN(c5ccc7c(c5)C(=O)N(C5CCC(=O)NC5=O)C7=O)CC6)CC4)ncc3Cl)ccc2n(C(C)C)c1=O` (stereo not drawn) [compound 495, 2-{[6-({5-chloro-2-[4-({9-[2-(2,6-dioxopiperidin-3-yl)-1,3-dioxo-2,3-dihydro-1H-isoindol-5-yl]-3,9-diazaspiro[5.5]undecan-3-yl}methyl)piperidin-1-yl]pyrimidin-4-yl}amino)-2-oxo-1-(propan-2-yl)-1,2-dihydroquinolin-3-yl]oxy}-N-methylacetamide], for which the pIC50 at BCL6 [1] was above 8.00. The compound also came in with a Dmax on BCL6 [2] of 50 to 70%.

Turning to `CNC(=O)COc1cc2cc(Nc3nc(N4CCC5(CCN(CC6CCN(c7ccc8c(c7)C(=O)N(C7CCC(=O)NC7=O)C8=O)CC6)CC5)CC4)ncc3Cl)ccc2n(C(C)C)c1=O` (stereo not drawn) [compound 496, 2-{[6-({5-chloro-2-[9-({1-[2-(2,6-dioxopiperidin-3-yl)-1,3-dioxo-2,3-dihydro-1H-isoindol-5-yl]piperidin-4-yl}methyl)-3,9-diazaspiro[5.5]undecan-3-yl]pyrimidin-4-yl}amino)-2-oxo-1-(propan-2-yl)-1,2-dihydroquinolin-3-yl]oxy}-N-methylacetamide], the pIC50 at BCL6 [1] was above 8.00. The Dmax on BCL6 [2] is 50 to 70%.

For `CNC(=O)COc1cc2cc(Nc3nc(N4CCC(CN5CCC6(CC5)CCN(c5ccc(N7CCC(=O)NC7=O)cc5)C6)CC4)ncc3Cl)ccc2n(C(C)C)c1=O` [compound 497, 2-{[6-({5-chloro-2-[4-({2-[4-(2,4-dioxo-1,3-diazinan-1-yl)phenyl]-2,8-diazaspiro[4.5]decan-8-yl}methyl)piperidin-1-yl]pyrimidin-4-yl}amino)-2-oxo-1-(propan-2-yl)-1,2-dihydroquinolin-3-yl]oxy}-N-methylacetamide], the pIC50 on BCL6 [1] is above 8.00. This compound showed a Dmax at BCL6 [2] below 50%.

Take `CNC(=O)COc1cc2cc(Nc3nc(N4CCC(CN5CC(N6CCN(c7cccc8c7C(=O)N(C7CCC(=O)NC7=O)C8=O)CC6)C5)CC4)ncc3Cl)ccc2n(C(C)C)c1=O` (stereo not drawn) [compound 499, 2-({6-[(5-chloro-2-{4-[(3-{4-[2-(2,6-dioxopiperidin-3-yl)-1,3-dioxo-2,3-dihydro-1H-isoindol-4-yl]piperazin-1-yl}azetidin-1-yl)methyl]piperidin-1-yl}pyrimidin-4-yl)amino]-2-oxo-1-(propan-2-yl)-1,2-dihydroquinolin-3-yl}oxy)-N-methylacetamide]: the pIC50 at BCL6 [1] is above 8.00. Also, the greatest degradation seen (Dmax) at BCL6 [2] is at least 70%.

In the case of `CNC(=O)COc1cc2cc(Nc3nc(N4CCC(CN5CC6(CCN(c7ccc8c(c7)C(=O)N(C7CCC(=O)NC7=O)C8=O)C6)C5)CC4)ncc3Cl)ccc2n(C(C)C)c1=O` (stereo not drawn) [compound 500, 2-{[6-({5-chloro-2-[4-({6-[2-(2,6-dioxopiperidin-3-yl)-1,3-dioxo-2,3-dihydro-1H-isoindol-5-yl]-2,6-diazaspiro[3.4]octan-2-yl}methyl)piperidin-1-yl]pyrimidin-4-yl}amino)-2-oxo-1-(propan-2-yl)-1,2-dihydroquinolin-3-yl]oxy}-N-methylacetamide], the pIC50 on BCL6 [1] was above 8.00. For the same compound, on BCL6 [2], the Dmax was in the range of 50 to 70%.

Take `CNC(=O)COc1cc2cc(Nc3nc(N4CCC(CN5CC6(CCN(c7cccc8c7C(=O)N(C7CCC(=O)NC7=O)C8=O)C6)C5)CC4)ncc3Cl)ccc2n(C(C)C)c1=O` (stereo not drawn) [compound 501, 2-{[6-({5-chloro-2-[4-({6-[2-(2,6-dioxopiperidin-3-yl)-1,3-dioxo-2,3-dihydro-1H-isoindol-4-yl]-2,6-diazaspiro[3.4]octan-2-yl}methyl)piperidin-1-yl]pyrimidin-4-yl}amino)-2-oxo-1-(propan-2-yl)-1,2-dihydroquinolin-3-yl]oxy}-N-methylacetamide]: the pIC50 on BCL6 [1] was above 8.00. At BCL6 [2], this compound had a Dmax of 50 to 70%.

Turning to `CNC(=O)COc1cc2cc(Nc3nc(N4CCC(CN5CCC6(C5)CN(c5cccc7c5C(=O)N(C5CCC(=O)NC5=O)C7=O)C6)CC4)ncc3Cl)ccc2n(C(C)C)c1=O` (stereo not drawn) [compound 502, 2-{[6-({5-chloro-2-[4-({2-[2-(2,6-dioxopiperidin-3-yl)-1,3-dioxo-2,3-dihydro-1H-isoindol-4-yl]-2,6-diazaspiro[3.4]octan-6-yl}methyl)piperidin-1-yl]pyrimidin-4-yl}amino)-2-oxo-1-(propan-2-yl)-1,2-dihydroquinolin-3-yl]oxy}-N-methylacetamide], the negative logarithm of the IC50 (pIC50) on BCL6 [1] was above 8.00. This compound displayed a Dmax on BCL6 [2] of 50 to 70%.

In the case of `CNC(=O)COc1cc2cc(Nc3nc(N4CCN(CC5CCN(c6cccc7c6C(=O)N(C6CCC(=O)NC6=O)C7=O)CC5)CC4)ncc3Cl)ccc2n(CCC2COC2)c1=O` (stereo not drawn) [compound 503, 2-{[6-({5-chloro-2-[4-({1-[2-(2,6-dioxopiperidin-3-yl)-1,3-dioxo-2,3-dihydro-1H-isoindol-4-yl]piperidin-4-yl}methyl)piperazin-1-yl]pyrimidin-4-yl}amino)-1-[2-(oxetan-3-yl)ethyl]-2-oxo-1,2-dihydroquinolin-3-yl]oxy}-N-methylacetamide], the pIC50 at BCL6 [1] is above 8.00. Besides, on BCL6 [2], the Dmax is at least 70%.

Turning to `CNC(=O)COc1cc2cc(Nc3nc(N4CCC[C@H](COc5cccc6c5C(=O)N(C5CCC(=O)NC5=O)C6=O)C4)ncc3Cl)ccc2n(CCC2COC2)c1=O` (stereo partly drawn) [compound 504, 2-{[6-({5-chloro-2-[(3S)-3-({[2-(2,6-dioxopiperidin-3-yl)-1,3-dioxo-2,3-dihydro-1H-isoindol-4-yl]oxy}methyl)piperidin-1-yl]pyrimidin-4-yl}amino)-1-[2-(oxetan-3-yl)ethyl]-2-oxo-1,2-dihydroquinolin-3-yl]oxy}-N-methylacetamide], the pIC50 at BCL6 [1] was 7.00 to 7.30. The same compound yielded a Dmax on BCL6 [2] of at least 70%.

As to `Cn1c(=O)n(CCC(C)(C)O)c2cc(Nc3nc(N4CCN(CC5CCN(c6cccc7c6C(=O)N(C6CCC(=O)NC6=O)C7=O)CC5)CC4)ncc3Cl)ccc21` (stereo not drawn) [compound 505, 4-(4-{[4-(5-chloro-4-{[3-(3-hydroxy-3-methylbutyl)-1-methyl-2-oxo-2,3-dihydro-1H-1,3-benzodiazol-5-yl]amino}pyrimidin-2-yl)piperazin-1-yl]methyl}piperidin-1-yl)-2-(2,6-dioxopiperidin-3-yl)-2,3-dihydro-1H-isoindole-1,3-dione], at BCL6 [1], the negative logarithm of the IC50 (pIC50) was 7.00 to 7.30. For the same compound, the maximal degradation (Dmax) on BCL6 [2] lay in the range of 50 to 70%.

As to `CNC(=O)COc1cc2cc(Nc3nc(N4CCC(CN5CCC6(CCN(c7cccc8c7C(=O)N(C7CCC(=O)NC7=O)C8=O)CC6)C5)CC4)ncc3Cl)ccc2n(C(C)C)c1=O` (stereo not drawn) [compound 506, 2-{[6-({5-chloro-2-[4-({8-[2-(2,6-dioxopiperidin-3-yl)-1,3-dioxo-2,3-dihydro-1H-isoindol-4-yl]-2,8-diazaspiro[4.5]decan-2-yl}methyl)piperidin-1-yl]pyrimidin-4-yl}amino)-2-oxo-1-(propan-2-yl)-1,2-dihydroquinolin-3-yl]oxy}-N-methylacetamide], on BCL6 [1], the pIC50 is above 8.00. The greatest degradation seen (Dmax) on BCL6 [2] lay in the range of 50 to 70%.
